{"source": "patent US9067898B1", "about": "“Isothiazole derivatives as GPR120 agonists for the treatment of type II diabetes” (Janssen Pharmaceutica NV, priority 2014, dated 2015)", "biological_target": "T1, Human GPR120 short form (Homo sapiens, UniProt Q5NUL3)", "T1 construct": "expressed in transfected cells", "T1 sequence (Q5NUL3 1-361)": "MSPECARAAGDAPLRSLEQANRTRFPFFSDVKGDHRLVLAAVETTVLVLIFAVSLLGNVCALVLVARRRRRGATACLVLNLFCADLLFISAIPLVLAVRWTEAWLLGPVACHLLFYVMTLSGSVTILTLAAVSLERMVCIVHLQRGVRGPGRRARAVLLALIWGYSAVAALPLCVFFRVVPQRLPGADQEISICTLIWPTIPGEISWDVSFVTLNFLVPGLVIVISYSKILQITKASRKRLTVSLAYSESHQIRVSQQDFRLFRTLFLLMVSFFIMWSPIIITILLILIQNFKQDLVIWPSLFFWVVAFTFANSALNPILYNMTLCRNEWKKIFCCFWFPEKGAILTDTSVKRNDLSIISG", "test": "Human GPR120 calcium flux assay (FLIPR), Procedure Calcium A", "type": "cell-based", "settings": "HEK-293 cells expressing human GPR120 short form, 2500 cells/well; read-out: GPR120 Ca2+ Assay A EC50", "excerpt": "This in vitro assay serves to assess test compound agonist activity against the short splice variant (SVS with Accession number NM_001195755.1 confirmed by sequencing data) of the GPR120 receptor. The Human Short splice variant #2 (NM_001195755.1) is missing an in-frame coding exon compared to variant 1 (the Human Long splice variant NM_181745.3), resulting in a shorter isoform (GPR120-S) lacking a 16 aa protein segment compared to isoform GPR120-L. The assay platform utilizes HEK-293 cells stably transfected to express the Human GPR120 short form. These cells are first loaded with the Ca^+2 sensitive dye, Fluo-4 NW. Upon stimulation, intracellular released Ca^+2 can bind to the dye and alter its fluorescence intensity. This increase in fluorescence signal, and thus the flux in intracellular [Ca^2+], is detected and quantitated by fluorescence imaging using a FLIPR reader. The effect of the agonist is measured as a function of concentration and used to calculate an EC50 based upon a response curve.\nIn this procedure 2500 cells/well were employed.\nA Human GPR120 clone (Genbank accession number NM_001195755.1) was placed into the pcDNA3.1 mammalian expression vector carrying the neomycin resistance gene. A stable mammalian cell was generated by placing the above clone into a HEK293 background. Clonal cells responding to long chain fatty acids had expression levels of GPR120 confirmed by RT-qPCR. Human HEK-GPR120 cells were cultured in Dulbecco's Modified Eagle's Medium (DMEM)/F12 medium supplemented with 10% fetal bovine serum (FBS), 1% L-Glutamine and 1% penicillin/streptomycin and 0.5 mg/ml G-418. Cells were split 2 times a week to keep the cells in the log-phase growth.\nIn preparation for the assay, HEK cells stably transfected with Human GPR120 (2.5K cells per well in 25 uL growth medium) were seeded into 384-well plates and then incubated overnight (37° C., 5% CO2). The next day, the media was changed to 20 μL assay buffer and the cell starved for 1 h at 37° C. The dye loading solution (2× dye) was prepared using 10 mL assay buffer, 100 μL of 250 mM probenecid, 1 bottle of Component A, and 20 μl of dye in DMSO. Twenty μL of the 2× dye loading buffer was then added to each well. The plates were incubated at 37° C. for 30 min, then at room temperature for an additional 15 minutes, before performing the assay on FLIPR. Test compounds were prepared in assay buffer (2 uL of cpd+198 uL assay buffer, final DMSO in assay plate is 0.2%) at the desired concentration, more particularly at 100, 50, 25, 12.5, 6.25, 3.125, 1.562, 0.781, 0.391, 0.195, 0.098, 0.049, 0.024 and 0.012 μM.\nThe assay was performed on a FLIPR plate reader using the following parameters. Baseline was read for 10 seconds at 1 sec intervals. The program was set to transfer 10 μL of ligand from compound plate to cell plate after baseline reading. Aspiration was executed at: 10 μL/sec speed, 4.6 μL height; Dispensing was executed at: 30 μL/sec speed, 45 μL height. After compound addition, each well was read for 300 sec, with measurements collected at 1 sec intervals.\nThe kinetic data from the FLIPR was based upon a 5 minute window for data collection. The fluorescence of each sample well was used for individual calculations of a normalized RFU value, which was defined as maximum response minus the minimum response. The normalized fluorescence reading (RFU) was calculated as follows: RFU=Fmax−Fmin The data were fitted to a sigmoidal dose-response curve with a variable Hill slope (<2) using nonlinear regression with GraphPad Prism 5.0 to calculate the EC50 values. The Fitting Equation was: Y=Bottom+(Top−Bottom)/(1+10^((Log EC50−X)*HillSlope)), where X is the log of the concentration and Y is the response.", "data": [{"smiles": "Cc1c(CCC(=O)O)ccc(OCc2sc(Cl)cc2-c2ccc(Cl)cc2)c1C", "note": "[Cpd 6, 3-(4-[[5-chloro-3-(4-chlorophenyl)thiophen-2-yl]methoxy]-2,3-dimethylphenyl) propanoic acid]", "values": [{"measurement": "EC50", "result": 90, "unit": "nM"}]}, {"smiles": "O=C(O)CCc1cc(F)c(OCc2sc(Cl)cc2-c2ccc(Cl)cc2)c(F)c1", "note": "[Cpd 10, 3-(4-[[5-chloro-3-(4-chlorophenyl)thiophen-2-yl]methoxy]-3,5-difluorophenyl)propanoic acid]", "values": [{"measurement": "EC50", "result": 123, "unit": "nM"}]}, {"smiles": "Cc1c(CCCO)ccc(OCc2sc(Cl)cc2-c2ccc(Cl)cc2)c1C", "note": "[Cpd 15, 3-(4-[[5-chloro-3-(4-chlorophenyl)thiophen-2-yl]methoxy]-2,3-dimethylphenyl)propan-1-ol]", "values": [{"measurement": "EC50", "result": 266, "unit": "nM"}]}, {"smiles": "CCc1ccc(-c2cc(F)sc2COc2ccc(CCCO)c(F)c2F)cc1", "note": "[Cpd 17, 3-(4-[[3-(4-ethylphenyl)-5-fluorothiophen-2-yl]methoxy]-2,3-difluorophenyl)propan-1-ol]", "values": [{"measurement": "EC50", "result": 406, "unit": "nM"}]}, {"smiles": "OCCCc1cc(F)c(OCc2sc(F)cc2-c2ccc(Cl)cc2)c(F)c1", "note": "[Cpd 18, 3-(4-[[3-(4-chlorophenyl)-5-fluorothiophen-2-yl]methoxy]-3,5-difluorophenyl)propan-1-ol]", "values": [{"measurement": "EC50", "result": 518, "unit": "nM"}]}, {"smiles": "CCc1ccc(-c2cc(C(F)(F)F)sc2COc2ccc(CCC(=O)O)c(F)c2F)cc1", "note": "[Cpd 21, 3-(4-((3-(4-ethylphenyl)-5-(trifluoromethyl)thiophen-2-yl)methoxy)-2,3-difluorophenyl)propanoic acid]", "values": [{"measurement": "EC50", "result": 788, "unit": "nM"}]}, {"smiles": "CCc1ccc(-c2cc(C(F)(F)F)sc2COc2c(F)cc(CCC(=O)O)cc2F)cc1", "note": "[Cpd 22, 3-(4-((3-(4-ethylphenyl)-5-(trifluoromethyl)thiophen-2-yl)methoxy)-3,5-difluorophenyl)propanoic acid]", "values": [{"measurement": "EC50", "result": 924, "unit": "nM"}]}, {"smiles": "Cc1ccc(-c2csc(C(F)(F)F)c2COc2c(F)cc(CCCO)cc2F)cn1", "note": "[Cpd 36, 3-(3,5-difluoro-4-((4-(6-methylpyridin-3-yl)-2-(trifluoromethyl)thiophen-3-yl)methoxy)phenyl)propan-1-61]", "values": [{"measurement": "EC50", "result": 90, "unit": "nM"}]}, {"smiles": "O=C(O)CCc1ccc(OCc2c(-c3ccc(Cl)cc3)csc2C(F)(F)F)c(F)c1F", "note": "[Cpd 47, 3-(4-((4-(4-chlorophenyl)-2-(trifluoromethyl)thiophen-3-yl)methoxy)-2,3-difluorophenyl)propanoic acid]", "values": [{"measurement": "EC50", "result": 166, "unit": "nM"}]}, {"smiles": "CCc1ccc(-c2csc(C(F)(F)F)c2COc2ccc(CCC(=O)O)c(C)c2C)cc1", "note": "[Cpd 54, 3-(4-((4-(4-ethylphenyl)-2-(trifluoromethyl)thiophen-3-yl)methoxy)-2,3-dimethylphenyl)propanoic acid]", "values": [{"measurement": "EC50", "result": 199, "unit": "nM"}]}, {"smiles": "Cc1c(CCC(=O)O)ccc(OCc2c(-c3ccc(Cl)cc3)csc2C(F)(F)F)c1C", "note": "[Cpd 57, 3-(4-((4-(4-chlorophenyl)-2-(trifluoromethyl)thiophen-3-yl)methoxy)-2,3-dimethylphenyl)propanoic acid]", "values": [{"measurement": "EC50", "result": 278, "unit": "nM"}]}, {"smiles": "Cc1c(CCC(=O)O)ccc(OCc2c(-c3ccc(Cl)cc3F)csc2C(F)(F)F)c1C", "note": "[Cpd 59, 3-(4-((4-(4-chloro-2-fluorophenyl)-2-(trifluoromethyl)thiophen-3-yl)methoxy)-2,3-dimethylphenyl)propanoic acid]", "values": [{"measurement": "EC50", "result": 348, "unit": "nM"}]}, {"smiles": "COc1ccc(-c2csc(C(F)(F)F)c2COc2ccc(CCC(=O)O)c(C)c2C)cc1", "note": "[Cpd 60, 3-(4-((4-(4-methoxyphenyl)-2-(trifluoromethyl)thiophen-3-yl)methoxy)-2,3-dimethylphenyl)propanoic acid]", "values": [{"measurement": "EC50", "result": 510, "unit": "nM"}]}, {"smiles": "CCc1ccc(-c2sc(C)c(C(F)(F)F)c2COc2ccc(CCC(=O)O)c(C)c2C)cc1", "note": "[Cpd 61, 3-(4-[[2-(4-ethylphenyl)-5-methyl-4-(trifluoromethyl)thiophen-3-yl]methoxy]-2,3-dimethylphenyl) propanoic acid]", "values": [{"measurement": "EC50", "result": 564, "unit": "nM"}]}, {"smiles": "Cc1ccc(-c2csc(C(F)(F)F)c2COc2c(F)cc(CCC(=O)O)cc2F)cn1", "note": "[Cpd 62, 3-(3,5-difluoro-4-((4-(6-methylpyridin-3-yl)-2-(trifluoromethyl)thiophen-3-yl)methoxy)phenyl)propanoic acid]", "values": [{"measurement": "EC50", "result": 747, "unit": "nM"}]}, {"smiles": "O=C(O)CCc1ccc(OCc2c(-c3ccc(Cl)cc3)nsc2C(F)(F)F)c(F)c1", "note": "[Cpd 68, 3-(4-[[3-(4-chlorophenyl)-5-(trifluoromethyl)-1,2-thiazol-4-yl]methoxy]-3-fluorophenyl)propanoic acid]", "values": [{"measurement": "EC50", "result": 28, "unit": "nM"}]}, {"smiles": "CCc1ccc(-c2nsc(C(F)(F)F)c2COc2ccc(CCC(=O)O)c3sccc23)cc1", "note": "[Cpd 92, 3-(4-[[3-(4-ethylphenyl)-5-(trifluoromethyl)-1,2-thiazol-4-yl]methoxy]-1-benzothiophen-7-yl)propanoic acid]", "values": [{"measurement": "EC50", "result": 70, "unit": "nM"}]}, {"smiles": "CCc1ccc(-c2nsc(C(F)(F)F)c2COc2ccc(CCC(=O)O)c3c2CCC3)cc1", "note": "[Cpd 103, 3-(7-[[3-(4-ethylphenyl)-5-(trifluoromethyl)-1,2-thiazol-4-yl]methoxy]-2,3-dihydro-1H-inden-4-yl)propanoic acid]", "values": [{"measurement": "EC50", "result": 80, "unit": "nM"}]}, {"smiles": "Cc1c(CCC(=O)O)ccc(OCc2c(Cl)nsc2-c2ccc(C(F)(F)F)cc2)c1C", "note": "[Cpd 112, 3-[4-([3-chloro-5-[4-(trifluoromethyl)phenyl]-1,2-thiazol-4-yl]methoxy)-2,3-dimethylphenyl]propanoic acid]", "values": [{"measurement": "EC50", "result": 99, "unit": "nM"}]}, {"smiles": "CCc1ccc(-c2snc(Cl)c2COc2c(F)cc(CCC(=O)O)cc2F)cc1", "note": "[Cpd 124, 3-(4-[[3-chloro-5-(4-ethylphenyl)-1,2-thiazol-4-yl]methoxy]-3,5-difluorophenyl)propanoic acid]", "values": [{"measurement": "EC50", "result": 114, "unit": "nM"}]}, {"smiles": "Cc1cc(OCc2c(-c3ccc(Cl)cc3)nsc2C(F)(F)F)c(F)cc1CCC(=O)O", "note": "[Cpd 125, 3-(4-((3-(4-chlorophenyl)-5-(trifluoromethyl)isothiazol-4-yl)methoxy)-5-fluoro-2-methylphenyl)propanoic acid]", "values": [{"measurement": "EC50", "result": 121, "unit": "nM"}]}, {"smiles": "CCc1ccc(-c2nsc(C(F)(F)F)c2COc2ccc(CCC(=O)O)c3ccccc23)cc1", "note": "[Cpd 130, 3-(4-[[3-(4-ethylphenyl)-5-(trifluoromethyl)-1,2-thiazol-4-yl]methoxy]naphthalen-1-yl)propanoic acid]", "values": [{"measurement": "EC50", "result": 125, "unit": "nM"}]}, {"smiles": "CC(=O)c1ccc(-c2nsc(C(F)(F)F)c2COc2c(F)cc(CCC(=O)O)cc2F)cc1", "note": "[Cpd 131, 3-(4-[[3-(4-acetylphenyl)-5-(trifluoromethyl)-1,2-thiazol-4-yl]methoxy]-3,5-difluorophenyl) propanoic acid]", "values": [{"measurement": "EC50", "result": 129, "unit": "nM"}]}, {"smiles": "COc1cc(-c2nsc(C(F)(F)F)c2COc2ccc(CCC(=O)O)c(C)c2C)ccc1Cl", "note": "[Cpd 144, 3-(4-((3-(4-chloro-3-methoxyphenyl)-5-(trifluoromethyl)isothiazol-4-yl)methoxy)-2,3-dimethylphenyl)propanoic acid]", "values": [{"measurement": "EC50", "result": 160, "unit": "nM"}]}, {"smiles": "Cc1c(CCC(=O)O)ccc(OCc2c(-c3ccc(C(C)F)cc3)nsc2C(F)(F)F)c1C", "note": "(centres unmarked) [Cpd 146, 3-[4-([3-[4-(1-fluoroethyl)phenyl]-5-(trifluoromethyl)-1,2-thiazol-4-yl]methoxy)-2,3-dimethylphenyl]propanoic acid]", "values": [{"measurement": "EC50", "result": 165, "unit": "nM"}]}, {"smiles": "CCc1ccc(-c2nsc(C3CC3)c2COc2ccc(CCC(=O)O)c(C)c2C)cc1", "note": "[Cpd 149, 3-(4-[[5-cyclopropyl-3-(4-ethylphenyl)-1,2-thiazol-4-yl]methoxy]-2,3-dimethylphenyl)propanoic acid]", "values": [{"measurement": "EC50", "result": 167, "unit": "nM"}]}]}
